The subject of data set [1] is MCF7. The data set can be described thus: Antiproliferative activity against human MCF7 cells assessed as cell growth inhibition. Type of data set: functional, cell-based.
In another data set the test system is MDA-MB-231. Kind of data set: Antiproliferative activity against human MDA-MB-231 cells assessed as cell growth inhibition. Type of data set: functional, cell-based.
The target in data set [2] is T1, Vascular endothelial growth factor receptor 2 (Homo sapiens, UniProt P35968). The data set can be described thus: Inhibition of human VEGFR.
The target in a further data set is Angiopoietin-1 receptor (Homo sapiens, UniProt Q02763). The data set can be described thus: Inhibition of TIE2 (unknown origin).
Data set [3] can be described thus: Cytotoxicity against HUVEC cells assessed as reduction in cell viability and measured after 24 hrs by MTT assay. The note with it: human. The data set is classed as toxicity, cell-based.
Data set [4] has as its system MCF7. The data set can be described thus: Cytotoxicity against human MCF7 cells assessed as reduction in cell viability incubated for 24 hrs by MTT assay. Type of data set: functional, cell-based. The note with it: MCF7, 24 h.
The subject of a further data set is HepG2. The data set can be described thus: Cytotoxicity against human HepG2 cells assessed as reduction in cell viability incubated for 24 hrs by MTT assay. The data set is classed as functional, cell-based. The note with it: HepG2, 24 h.
The subject of data set [5] is HUVEC. Kind of data set: Anti-angiogenesis activity in HUVEC cells. The data set is classed as functional, cell-based. The note with it: Homo sapiens.
The target in data set [6] is T1, Vascular endothelial growth factor receptor 2. The data set can be described thus: Inhibition of VEGFR2 in HUVEC cells. Type of data set: cell-based.
Data set [7] in a line: Inhibition of angiogenesis in HUVEC cells assessed as reduction in capillary tube formation after 6 hrs by phase contrast microscopy. The data set is classed as functional, cell-based. The note with it: Homo sapiens.
In the next data set the test system is EA.hy 926. The data set can be described thus: Antiproliferative activity against human EA.hy 926 cells assessed as reduction in cell viability incubated for 48 hrs by MTT assay. Type of data set: functional, cell-based. The note with it: EA.hy 926, 48 h.
The subject of data set [8] is HUVEC. The data set can be described thus: Antiproliferative activity against HUVEC cells assessed as reduction in cell viability measured after 48 hrs by MTT assay. Type of data set: functional, cell-based. The note with it: Homo sapiens.
Another data set concerns NCI-H1975. The data set can be described thus: Antiproliferative activity against human NCI-H1975 cells assessed as reduction in cell viability measured after 48 hrs by MTT assay. The data set is classed as functional, cell-based. The note with it: NCI-H1975, 48 h.
The test system of the next data set is A549. Kind of data set: Antiproliferative activity against human A549 cells assessed as reduction in cell viability measured after 48 hrs by MTT assay. The data set is classed as functional, cell-based. The note with it: A549, 48 h.

pIC50: −log10 of the molar value.

T1 sequence (P35968 whole entry): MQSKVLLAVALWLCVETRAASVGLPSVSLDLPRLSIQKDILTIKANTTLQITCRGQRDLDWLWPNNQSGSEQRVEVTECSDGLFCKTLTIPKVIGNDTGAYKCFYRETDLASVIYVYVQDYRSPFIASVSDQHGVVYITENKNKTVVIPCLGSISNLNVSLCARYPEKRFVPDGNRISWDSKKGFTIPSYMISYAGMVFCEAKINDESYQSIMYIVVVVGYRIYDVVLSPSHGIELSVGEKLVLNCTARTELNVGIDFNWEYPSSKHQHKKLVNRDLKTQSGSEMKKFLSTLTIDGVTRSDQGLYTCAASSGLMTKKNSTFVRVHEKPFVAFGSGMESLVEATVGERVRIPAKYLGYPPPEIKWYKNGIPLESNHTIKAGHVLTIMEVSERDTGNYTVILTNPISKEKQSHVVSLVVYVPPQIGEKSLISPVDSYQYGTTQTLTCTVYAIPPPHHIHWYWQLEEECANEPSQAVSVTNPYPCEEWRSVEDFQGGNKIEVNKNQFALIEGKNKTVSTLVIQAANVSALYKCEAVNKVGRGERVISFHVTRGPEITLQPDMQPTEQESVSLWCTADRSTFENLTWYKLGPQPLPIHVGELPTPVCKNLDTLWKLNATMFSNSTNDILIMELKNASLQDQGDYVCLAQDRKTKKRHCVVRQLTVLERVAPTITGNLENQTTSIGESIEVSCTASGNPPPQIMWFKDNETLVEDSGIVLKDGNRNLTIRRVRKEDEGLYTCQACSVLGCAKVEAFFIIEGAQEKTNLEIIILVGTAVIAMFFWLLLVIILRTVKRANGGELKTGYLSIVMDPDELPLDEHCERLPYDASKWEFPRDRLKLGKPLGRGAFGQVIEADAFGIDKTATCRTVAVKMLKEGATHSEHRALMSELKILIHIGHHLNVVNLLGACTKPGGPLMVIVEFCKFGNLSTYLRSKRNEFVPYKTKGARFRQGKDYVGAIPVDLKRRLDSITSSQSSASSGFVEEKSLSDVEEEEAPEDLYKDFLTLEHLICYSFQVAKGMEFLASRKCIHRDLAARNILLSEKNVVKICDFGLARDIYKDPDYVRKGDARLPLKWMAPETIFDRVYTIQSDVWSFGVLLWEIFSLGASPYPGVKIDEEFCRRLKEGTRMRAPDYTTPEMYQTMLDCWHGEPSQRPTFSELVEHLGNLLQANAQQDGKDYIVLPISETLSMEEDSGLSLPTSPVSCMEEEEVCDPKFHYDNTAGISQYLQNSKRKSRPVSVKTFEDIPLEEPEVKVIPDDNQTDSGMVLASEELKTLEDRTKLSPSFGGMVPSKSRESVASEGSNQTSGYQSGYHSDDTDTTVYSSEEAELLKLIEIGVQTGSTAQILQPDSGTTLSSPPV
Angiopoietin-1 receptor, sequence (Q02763 whole entry): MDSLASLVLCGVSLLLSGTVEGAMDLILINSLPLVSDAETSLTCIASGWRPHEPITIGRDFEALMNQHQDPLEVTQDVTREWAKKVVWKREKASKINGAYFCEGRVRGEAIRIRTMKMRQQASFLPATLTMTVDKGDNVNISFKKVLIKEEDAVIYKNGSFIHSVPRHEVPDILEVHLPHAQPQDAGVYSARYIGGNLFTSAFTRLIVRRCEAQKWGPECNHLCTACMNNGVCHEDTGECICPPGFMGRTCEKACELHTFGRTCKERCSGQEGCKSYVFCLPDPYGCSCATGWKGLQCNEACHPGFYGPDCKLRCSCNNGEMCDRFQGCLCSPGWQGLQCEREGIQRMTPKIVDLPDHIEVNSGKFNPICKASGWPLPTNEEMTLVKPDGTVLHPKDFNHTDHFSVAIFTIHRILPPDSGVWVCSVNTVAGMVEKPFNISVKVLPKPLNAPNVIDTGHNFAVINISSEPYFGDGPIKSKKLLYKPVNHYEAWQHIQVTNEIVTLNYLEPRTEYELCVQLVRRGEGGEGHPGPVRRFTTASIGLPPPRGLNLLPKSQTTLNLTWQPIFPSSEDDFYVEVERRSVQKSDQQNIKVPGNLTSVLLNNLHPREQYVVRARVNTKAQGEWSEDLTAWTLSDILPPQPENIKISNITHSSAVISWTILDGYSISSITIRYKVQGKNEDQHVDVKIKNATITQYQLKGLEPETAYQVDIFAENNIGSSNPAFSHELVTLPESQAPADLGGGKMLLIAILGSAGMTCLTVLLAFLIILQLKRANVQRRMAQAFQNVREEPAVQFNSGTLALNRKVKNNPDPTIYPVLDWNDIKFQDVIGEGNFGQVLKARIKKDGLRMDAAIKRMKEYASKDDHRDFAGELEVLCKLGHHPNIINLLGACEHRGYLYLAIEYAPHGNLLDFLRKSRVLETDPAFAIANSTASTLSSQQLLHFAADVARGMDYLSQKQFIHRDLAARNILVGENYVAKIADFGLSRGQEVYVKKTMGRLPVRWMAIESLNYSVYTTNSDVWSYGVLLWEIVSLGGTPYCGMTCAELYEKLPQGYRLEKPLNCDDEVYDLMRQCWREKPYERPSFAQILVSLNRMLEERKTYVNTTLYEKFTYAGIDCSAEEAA

Regarding `O=C(Nc1cccc(Sc2ccnc3ccsc23)c1)Nc1cccc(C(F)(F)F)c1`, the pIC50 with MCF7 [1] is 5.92; in the data set with MDA-MB-231, 5.30.
`COC(=O)Nc1nc2cc(Oc3ccc(NC(=O)Nc4cc(F)ccc4C(F)(F)F)cc3)ccc2[nH]1`: the pIC50 in data set [2] is 5.46; against Angiopoietin-1 receptor, 8.16.
As to `Cc1nc(Nc2ccc(NC(=O)Nc3ccc(F)c(Cl)c3)cc2)c2nc(-c3ccc(OCCCN4CCN(C)CC4)cc3)oc2n1`, the IC50 at 24 h in data set [3] worked out at 12.4 µM.
As to `CSc1cccc(NC(=O)Nc2ccc(Oc3ccc4[nH]c(=O)c(=O)[nH]c4c3)cc2C)c1`, the pIC50 is 4.85 in the data set with MCF7 [4] and 4.77 with HepG2.
As to `Cc1nc(Nc2ccc(NC(=O)Nc3cccc(F)c3)cc2)c2nc(-c3ccccc3)sc2n1`, the negative logarithm of the IC50 (pIC50) with HUVEC [5] was 5.28; in data set [6], 4.14; in data set [7], 5.28.
In the case of `O=C(Nc1ccc(-c2cccc(NC(=O)C3CC3)n2)cc1)Nc1ccc(Cl)c(C(F)(F)F)c1`, the pIC50 in the data set on EA.hy 926 was 4.84.
Same read-out and setting: as for `O=C(Nc1ccc(-c2cccc(NC(=O)C3CC3)n2)cc1)Nc1cccc(C(F)(F)F)c1`, the figure is 4.79.
With `O=C(Nc1ccc(OC(F)(F)F)cc1)Nc1ccc2nc(-c3ccccc3Cl)oc2c1`, the values for the pIC50 in the data set with HUVEC [8], in the data set with NCI-H1975 and in the data set on A549 were 5.07, 5.85 and 5.12, respectively.
The compound `CNC(=O)c1cc(Oc2ccc(NC(=O)Nc3ccc(Cl)c(C(F)(F)F)c3)cc2)ccn1` [SORAFENIB] gave a pIC50 in the data set with HUVEC [5] of 4.14.

These data come from ChEMBL document CHEMBL5356932, “Research and development of N,N'-diarylureas as anti-tumor agents” (RSC Med Chem, 2023).
